This note sets out measurements from article PMC11352409, “Subtype-Specific Ligand Binding and Activation Gating in Homomeric and Heteromeric P2X Receptors” (Biomolecules, 2024).

The structures appear in SMILES notation.

As usually defined, the EC50 is the concentration needed to bring the measured effect to its halfway point.

One assay deals with T1, human P2X2 receptors (Homo sapiens, UniProt Q9UBL9).
T1 construct: expressed in transfected cells
T1 sequence (Q9UBL9 1-404 isoform Q9UBL9-2): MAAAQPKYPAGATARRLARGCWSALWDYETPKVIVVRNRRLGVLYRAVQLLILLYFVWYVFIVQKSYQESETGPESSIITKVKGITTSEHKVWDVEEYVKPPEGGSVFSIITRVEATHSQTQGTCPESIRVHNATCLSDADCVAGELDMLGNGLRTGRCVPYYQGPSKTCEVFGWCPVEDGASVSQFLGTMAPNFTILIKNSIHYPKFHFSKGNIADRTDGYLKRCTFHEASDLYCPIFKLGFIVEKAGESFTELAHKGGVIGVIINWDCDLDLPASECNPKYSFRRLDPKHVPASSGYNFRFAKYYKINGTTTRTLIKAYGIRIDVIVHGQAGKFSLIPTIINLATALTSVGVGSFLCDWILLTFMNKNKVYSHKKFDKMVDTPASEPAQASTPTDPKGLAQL
Briefly: Whole-cell patch-clamp concentration-activation, HEK293 cells stably expressing hP2X2. The assay is classed as cell-based. On the procedure:
(§1) Human P2X receptors were expressed from HEK293 cell lines containing an inducible promoter system (Flp-In-T-REx 293, Invitrogen, Waltham, MA, USA). The used cell lines were: hP2X2 B (RRID: AC line CVCL_D6U1), hP2X3 (RRID: AC line CVCL_D6U3), and hP2X2/3 (RRID: AC line CVCL_D6U2). The cells were cultured in MEM supplemented with non-essential amino acids (Gibco, Waltham, MA, USA), 10% FCS, and antibiotics, according to the manufacturer’s instructions. For stable cell lines, Flp-In-T-REx 293 cells were transfected using the calcium phosphate method with a mixture of plasmids (0.3 µg pcDNA5/FRT/TO P2X gene and 1.5 µg pOG44) and selected for hygromycin resistance. The cells were seeded on glass coverslips for electrophysiological measurements and used 24–48 h after tetracycline induction ([…]).
(§2) Membrane currents were recorded with a standard patch-clamp technique in the whole-cell configuration. The patch pipettes were pulled from borosilicate glass (ID 1.0 mm, OD 2.0 mm; VITROCOM, Mountain Lakes, NJ, USA) using a micropipette puller (P-97, Sutter Instrument, Novato, CA, USA). The pipettes were filled with intracellular solution containing (mM) 142 NaCl, 5 BAPTA, 5 EGTA, and 10 HEPES at pH 7.4. The pipette resistance was from 2.0 to 6.0 MΩ. The bath solution contained (mM) 142 NaCl, 10 EGTA, 10 HEPES, and 10 glucose at pH 7.4. To increase the speed of recovery from the hP2X3 receptors, we additionally used a bath solution containing (mM) 142 NaCl, 10 HEPES, 10 glucose, 2 CaCl2, and 1 MgCl2. The cells were lifted for recording from the chamber bottom by the patch pipette and positioned in front of the outlet of the application pipette.
(§3) Solutions switches were carried out with the application pipette that had three barrels (inner diameter ~600 µm, Warner Instruments) controlled by a step motor (SF-77B, Warner Instruments). The speed of the laminar solution flow out of the barrels was estimated to be 2–5 cm/s. One barrel contained a control solution and another was connected to a solution selector (Vici Valco Instruments), which allowed us to apply different test solutions by exchanging the solution during the interval (60 sec for P2X2 and P2X2/3 receptors, 180 s for P2X3 receptors) of applying the control solution. Cells expressing hP2X3 were washed with 3 Units/mL apyrase for 30 min to remove ATP. To ensure the comparability of the data points between each application, we rinsed hP2X3 with the following solution for 3 min after each ATP application (mM): 142 NaCl, 10 HEPES, 10 glucose, 2 CaCl2, and 1 MgCl2 at pH 7.4. After sufficient recovery, we switched to the bath solution for 10 s and then to the solution of interest. The speed of the switch around a whole cell was estimated to be below 10 ms by switching between different salt solutions.
(§4) The saturation of activation was determined with ATP at 100 µM. The currents were recorded with a HEKA EPC 10 amplifier in combination with the patchmaster software. The sampling rate was 10 kHz and the recordings were on-line filtered at 2.9 kHz using a four-pole Bessel filter. The currents were recorded at a constant holding potential of −50 mV and the series resistance was compensated with the patchmaster software up to 80%.
(§5) The concentration–activation relationships from whole-cell measurements in the HEK293 cells were obtained from the maximum currents during ATP application. These current amplitudes were normalised with respect to the current at saturating ATP (100 µM) and the resulting data points were fitted I/ImaxATP = Amp/(1 + (EC50/[X])^h) (1) with the Origin 2019® software using a non-linear curve fitting routine. I is the actual current amplitude and ImaxATP is the maximum current amplitude at saturating ATP. The amplitude Amp is the efficacy of the respective ligands. EC50 is the ligand concentration generating the half-maximum current and h is the respective Hill coefficient. [X] is the actual concentration of ATP to be tested. […]

A further assay has as its target T2, human P2X3 receptors (Homo sapiens, UniProt P56373).
T2 construct: expressed in transfected cells
T2 sequence (P56373 1-397): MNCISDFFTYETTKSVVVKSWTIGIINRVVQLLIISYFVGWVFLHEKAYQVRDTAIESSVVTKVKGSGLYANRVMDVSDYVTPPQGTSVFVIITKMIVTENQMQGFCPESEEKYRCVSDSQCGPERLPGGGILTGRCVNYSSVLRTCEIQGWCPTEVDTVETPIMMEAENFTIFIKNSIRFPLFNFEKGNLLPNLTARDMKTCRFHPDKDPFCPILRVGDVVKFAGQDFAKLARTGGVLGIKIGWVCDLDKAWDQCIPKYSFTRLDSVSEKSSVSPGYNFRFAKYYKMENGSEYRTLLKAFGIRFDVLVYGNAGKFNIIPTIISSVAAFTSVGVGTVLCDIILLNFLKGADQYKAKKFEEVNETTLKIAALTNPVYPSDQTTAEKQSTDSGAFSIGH
Briefly: Whole-cell patch-clamp concentration-activation, HEK293 cells stably expressing hP2X3. The assay is classed as cell-based. The settings on record: for Hill: hP2X3, Hill coefficient of concentration-activation fit; for Effect (Fold in ATP Potency): hP2X3, relative to ATP; for Effect (Fold in ATP Efficacy): hP2X3, relative to current at 100 µM ATP; for EC50: hP2X3, whole-cell, -50 mV, divalent-cation-free bath with 10 mM EGTA, normalised to 100 µM ATP. On the procedure: as §1, §2, §3, §4, §5
(In patch-clamp work, channel activity is measured electrically.)

Turning to `COCC[N+]1=C(C=CC=C2N(CCCCCC(=O)NCCCCCCSc3nc(N)c4ncn(C5OC(COP(=O)(O)CP(=O)(O)OP(=O)(O)O)C(O)C5O)c4n3)c3ccc(S(=O)(=O)O)cc3C2(C)C)C(C)(C)c2cc(S(=O)(=O)[O-])ccc21` (stereo not drawn) [α,βMe-fATP, 2-[DY-547P1]-AHT-α,βMe-ATP], on human P2X2 receptors (hP2X2, 10 µM α,βMe-fATP co-applied with 0.1 µM ATP, versus ATP alone), the “Elevation of activation level on co-application with ATP” value is “approximately 55%”. Besides, at human P2X2 receptors (hP2X2, α,βMe-fATP alone (10 µM)), the “Effect of ligand alone on current” value was “no discernible effect”. At human P2X3 receptors, the Hill was 3.5 ± 0.0, the “Effect (Fold in ATP Potency)” value was determined as 0.1 fold, the “Effect (Fold in ATP Efficacy)” value was 1.0 fold and the concentration giving a half-maximal response (EC50) turned out to be 8.1 µM.

For the compound `COCC[N+]1=C(C=CC=C2N(CCCCCC(=O)NCCCCCCSc3nc(N)c4ncn(C5OC(COP(=O)(O)OP(=O)(O)OP(=O)(O)O)C(O)C5O)c4n3)c3ccc(S(=O)(=O)O)cc3C2(C)C)C(C)(C)c2cc(S(=O)(=O)[O-])ccc21` (stereo not drawn) [fATP, 2-[DY-547P1]-AHT-ATP], the Hill at human P2X2 receptors (hP2X2, Hill coefficient of concentration-activation fit) was 1.4 ± 0.1; on human P2X3 receptors, 1.6 ± 0.1. In addition, the “Effect (Fold in ATP Potency)” value turned out to be 0.2 fold on human P2X2 receptors (hP2X2, relative to ATP) and 0.9 fold on human P2X3 receptors. Moreover, the “Effect (Fold in ATP Efficacy)” value at human P2X2 receptors (hP2X2, relative to current at 100 µM ATP) is reported as 1.0 fold; on human P2X3 receptors, 0.8 fold. The “Agonist behaviour (current response)” value at human P2X2 receptors (hP2X2, result in words) is “full agonist”. Besides, the EC50 at human P2X2 receptors (hP2X2, whole-cell, -50 mV, divalent-cation-free bath with 10 mM EGTA, normalised to 100 µM ATP) amounted to 4.6 ± 0.3 µM; on human P2X3 receptors it was 1.3 ± 0.1 µM.
